These results are taken from patent US9708292B2, “Cyanopyrimidine derivative” (OTSUKA PHARMACEUTICAL CO., LTD., priority 2009, dated 2017).

Data set [1] has as its target T1, adenosine A2a receptor (Human) (Homo sapiens, UniProt P29274).
T1 construct: host or cells: HEK293
As to the kind of experiment: c-AMP generating action in cell expressing adenosine A2a receptor. Format: cell-based. On the procedure: Test 1: c-AMP Generating Action in Cell Expressing Adenosine A2a Receptor
The test was carried out as mentioned below with reference to the method disclosed in the reference (Klotz k. N. et al., Naunyn-Schmiedeberg's Arch. Pharmacol., (1998) 357, 1-9; Shryock J. C. et al., Molecular Pharmacology, (1998) 53, 886-893).
As to the cell to be used in the test, HEK293 cell expressing adenosine A2a receptor (Human) (PerkinElmer Life Sciences, Code No. RBHA2AC) was used.
As to the culture medium, Dulbecco's modified Eagles medium (DMEM) including 10% FBS (Fetal bovine serum) and 1 mM of sodium pyruvate was used.
The cell was placed on 96 well plate (1×10^5/well), and cultured overnight. After removing off the supernatant, 0.1 ml of DMEM (without FBS) containing 20 mM HEPES, 0.1 mM IBMX (3-isobutyl-1-methylxanthine) and 2 unit/mL adenosine deaminase were added to each well, and they were incubated at 37° C. for 30 minutes. Then, 0.1 ml of the culture medium containing the DMSO solution of the test compound in the predetermined concentration was added to each well, and they were incubated for additional 30 minutes. After removing off the supernatant, the cytolytic solution was added thereto to quench the reaction. The amount of c-AMP in each well was measured by using the c-AMP enzyme immunoassay (EIA) system (Amersham Biosciences, Code No. RPN225).
The same assay was repeated using CGS-21680 (2-p-carboxyethyl)phenethylamino-5′-N-ethylcarboxamidoadenosine hydrochloride, (Sigma, code C141) as a reference compound.
The amount of resultant c-AMP in the reference medium, caused by 1 μM of the reference compound, was defined to be 100%. The amount of resultant c-AMP in each test medium was measured, and the concentration producing 50% c-AMP amount was calculated based on the results of each test compound in the predetermined concentration, which is defined as EC50 value.

Data set [2] deals with Rabbit corneal epithelium cell. Description: Effect on corneal epithelium cell after UVA irradiation (neutral red uptake assay). Format: cell-based. The following applies: 60 min incubation, UVA 3.5 mW/cm^2 for 70 min, viability after 24 hours. On the procedure: Test 2: Effect of the Compound of Example 1 to Corneal Epithelium Cell [Method]
Rabbit corneal epithelium cell (KURABO) was used as the cell for the test. To the rabbit corneal epithelium cell placed on 96 well plate was added the compound of Example 1, and the sample was incubated for 60 minutes. Then, the sample was irradiated with UVA (3.5 mW/cm^2) for 70 minutes using a solar simulator (SOL500). After that, the cell was washed with a buffer. After 24 hours, the cell viability was evaluated by the neutral red uptake assay.

The subject of the next data set is ciliary artery. Description: Vascular relaxation of isolated ciliary artery contracted with High K+-krebs solution. The arrangement: species or system Rabbits. The procedure:
Rabbits were sacrificed with an overdose of sodium pentobarbital by intravenous administration. The eyes were enucleated and ciliary arteries were isolated. Vascular rings were cut 2 mm in length from ciliary arteries and set to Danish Multi Myograph System 610M (Danish myo technology) under microscopic observation. The vessels were equilibrated in oxygenated krebs solution with 5% CO2 and 95% O2 at 37° C.
To confirm the endothelium damage of vessels, the relaxation of ciliary artery by 100 μM carbachol was tested. If relaxation by carbachol was more than 30%, the vessels whose endothelium had no damage were used for the experiments.
After ciliary artery was contracted with High K^+-krebs solution, the compound of Example 1 was serially administrated to chamber from 0.3 μM to 300 μM. The tension was measured by Myodaq ver 2.01 (Danish myo technology).

Data set [3] relates to retinal ganglion cell (RGC). As to the kind of experiment: Neuroprotection: cell survival of purified retinal ganglion cells. Format: cell-based, Long Evans rat. The following applies: five days of culture, control = 0%, BDNF (50 ng/mL) = 100%, Mean ± SE. The procedure: This experiment was performed according to a method reported by Otori et al. (Invest Opthalmol Vis Sci. 39: 972-981, 1998).
Eyes were enucleated from 7 day old Long Evans rat. Retinas were isolated from the eyes. The retinas were dissociated by incubating with Neurobasal medium including 15 U/mL papain at 37° C. for 30 minutes. The retinal suspension was prepared.
The retinal suspension was incubated in anti-SIRP antibody (Chemicon)-coated flask at room temperature for 30 minutes. The non adherent cells were placed in anti-thy-1 antibody (Chemicon)-coated flask. The cells were incubated at room temperature for 30 minutes. Finally the adherent cells in flask were washed with Neurobasal medium. After centrifugation at 800 rpm for 5 minutes, the purified RGC was prepared. The cells were seeded on glass coverslips that had been coated with poly-L-lysine and laminin. The purified RGC were cultured in Neurobasal medium containing B27 supplement, 1 mM glutamine 50 ng/mL CNTF, 10 μM Forskolin. Culture was maintained at 37° C. in humidified atmosphere containing 5% CO2 and 95%, air. BDNF (50 ng/mL) or the compound of Example 1 at final concentration of 0 nM (control), 3 nM, 10 nM or 30 nM was administered immediately after cell seeding.
Cell survival (cell viability) was determined by counting stained RGC. Five days after culture started, RGC were stained with 1 μM Calcein-AM (Molecular probe). The number of RGC was counted using fluorescence microscope. The percentage of cell survival (cell viability) was calculated by using the counts of control group as 0%, and the counts of BDNF group as 100%.
The cell survival was calculated by using the counts of control groups as 0% and the counts of BDNF groups as 100%.

The mark [4] stands for this setting: HEK293 cell expressing human adenosine A2a receptor, c-AMP by 1 μM CGS-21680 defined as 100%, read-out: A2a agonistic activity (EC50).

SMILES strings stand for the structures. Counter-ions that a name gives are not always drawn. Like-named read-outs stand apart in the source and are kept apart here.

T1 sequence (P29274 whole entry): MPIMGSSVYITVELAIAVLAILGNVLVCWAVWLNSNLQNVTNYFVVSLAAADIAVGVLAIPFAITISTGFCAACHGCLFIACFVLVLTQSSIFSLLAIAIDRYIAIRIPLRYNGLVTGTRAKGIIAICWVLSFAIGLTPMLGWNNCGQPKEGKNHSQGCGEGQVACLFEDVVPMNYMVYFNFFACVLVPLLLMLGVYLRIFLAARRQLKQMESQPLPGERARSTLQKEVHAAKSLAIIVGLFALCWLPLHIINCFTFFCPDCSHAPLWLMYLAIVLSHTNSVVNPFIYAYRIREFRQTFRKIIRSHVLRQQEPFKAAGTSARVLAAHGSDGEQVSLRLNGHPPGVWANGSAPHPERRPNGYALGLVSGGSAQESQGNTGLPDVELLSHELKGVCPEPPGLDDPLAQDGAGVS

As to `CC(=O)Nc1ccc(-c2nc(SCc3cccc(CCC(=O)N4CCN(CC5CCNCC5)CC4)n3)nc(N)c2C#N)cc1` [Example 1, N-(4-(6-amino-5-cyano-2-((6-(3-oxo-3-(4-(piperidin-4-yl-methyl)piperazin-1-yl)propyl)pyridin-2-yl)methylthio)-pyrimidin-4-yl)phenyl)acetamide trihydrochloride], the EC50 – broadly, the concentration needed to bring the measured effect to its halfway point – in data set [1] (setting [4]) came out at 3.3 nM; in the data set with ciliary artery (Oryctolagus cuniculus, rabbit ciliary artery rings, High K+ contraction), 17000 nM. The cell viability (commonly a read-out of living cells in per cent, often relative to untreated cells) in data set [2] (0.25 mM) turned out to be 106.3%; in data set [2] (0.5 mM), 115.0%; in data set [2] (1 mM) it was 100.7%. For the same molecule, the “Relaxation (%)” value in the data set on ciliary artery (0.3 μM) was 2.6 ± 0.5%; in the data set on ciliary artery (1 μM), 4.8 ± 1.2%; in the data set on ciliary artery (3 μM), 7.9 ± 2.3%; in the data set with ciliary artery (10 μM) it was 35.3 ± 14.4%; in the data set with ciliary artery (30 μM), 65.6 ± 9.5%; in the data set with ciliary artery (100 μM), 82.4 ± 3.7%. For the same molecule, the “Relaxation (%)” value with ciliary artery (300 μM) came to 90.1 ± 2.4%. Besides, the “Cell survival (%)” value is on record as 10.9 ± 7.0% in data set [3] (3 nM), 46.5 ± 7.0% in data set [3] (10 nM) and 41.9 ± 5.5% in data set [3] (30 nM).

Consider `CC(=O)Nc1ccc(-c2nc(SCc3cccc(CCC(=O)N4CCN(CC5CCN(CCO)CC5)CC4)n3)nc(N)c2C#N)cc1` [Example 2, N-(4-(6-amino-5-cyano-2-((6-(3-(4-((1-(2-hydroxyethyl)-piperidin-4-yl)methyl)piperazin-1-yl)-3-oxopropyl)pyridin-2-yl)methylthio)pyrimidin-4-yl)phenyl)acetamide maleate], for which the EC50 in data set [1] (setting [4]) worked out at 2.9 nM.

For `CC(=O)Nc1ccc(-c2nc(SCc3cccc(CCC(=O)N4CCN(CC5CCN(CCCO)CC5)CC4)n3)nc(N)c2C#N)cc1` [Example 3, N-(4-(6-amino-5-cyano-2-((6-(3-(4-((1-(3-hydroxy-propyl)piperidin-4-yl)methyl)piperazin-1-yl)-3-oxopropyl)-pyridin-2-yl)methylthio)pyrimidin-4-yl)phenyl)acetamide], in data set [1] (setting [4]), the EC50 was 1.8 nM.

As to `CC(=O)Nc1ccc(-c2nc(SCc3cccc(CCC(=O)N4CCN(CC5CCN(CCF)CC5)CC4)n3)nc(N)c2C#N)cc1` [Example 4, N-(4-(6-amino-5-cyano-2-((6-(3-(4-((1-(2-fluoroethyl)-piperidin-4-yl)methyl)piperazin-1-yl)-3-oxopropyl)pyridin-2-yl)methylthio)pyrimidin-4-yl)phenyl)acetamide], in data set [1], the EC50 turned out to be 6.1 nM.

Take `COC(=O)CCN1CCC(CN2CCN(C(=O)CCc3cccc(CSc4nc(N)c(C#N)c(-c5ccc(NC(C)=O)cc5)n4)n3)CC2)CC1` [Example 5, N-(4-(6-amino-5-cyano-2-((6-(3-(4-((1-(2-methoxy-carbonylethyl)piperidin-4-yl)methyl)piperazin-1-yl)-3-oxopropyl)pyridin-2-yl)methylthio)pyrimidin-4-yl)phenyl)-acetamide]: the EC50 in data set [1] (setting [4]) was found to be 8.4 nM.
